The nature of data set [1]: Single (SRD) and multiple rising dose (MRD) studies in normal healthy subjects. In kind it is in vivo, human. The settings on record: oral; human plasma; read-out: systemic (plasma) half-life. On the procedure: (§1) In the MRD study, following doses 10 mg administered 4 times daily, nausea and vomiting typically occurred within 30 min of dosing—prior to significant systemic absorption. Diarrhea was typically observed more than 5 hours following dosing, when systemic concentrations were approximately 20% of Cmax values. […] Such pharmacodynamic GI motility responses appear to correlate primarily with local effects (possibly agonism of α3β4 receptors located on enterochromaffin cells) rather than systemic plasma concentrations.

Data set [2] concerns normal healthy subjects. The data set is described as above. In kind it is in vivo, human. The method, then:
as §1

The target of data set [3] is α3β4 nueronal nicotinic receptors (Homo sapiens, UniProt P30926+P32297). In words: Agonism at α3β4 neuronal nicotinic receptors (statement).
In data set [4] the test system is rat Streptozotocin-induced diabetic neuropathy model. Nature of the data set: Streptozotocin-induced diabetic neuropathy (allodynia) model. It is filed as in vivo. The settings on record: STZ rat; for pain sensitivity (allodynia testing of the hindpaw): Week 6, versus vehicle-treated animals. The text has this: Preclinically, in two animal models of neuropathic pain, repeat administration of Compound A produced significant analgesia. […] With reference to WO 08/157,365, the rat Streptozotocin-induced diabetic neuropathy model is a clinically relevant model of diabetic neuropathy, which replicates elements of the human situation diabetic condition such as high glucose levels, neuropathic pain in the extremities, and generally poor health.

The target in data set [5] is α4β2 nueronal nicotinic receptors (Homo sapiens, UniProt P17787+P43681). Nature of the data set: Agonism at α4β2 neuronal nicotinic receptors (statement).
Data set [6] concerns Taxol®-induced neuropathy. In words: Taxol-induced (chemotherapy induced) neuropathy model. It is filed as in vivo.
Data set [7] deals with subjects with IBS-C. In words: Randomized, double-blind, placebo controlled proof of principle study in IBS-C. In kind it is in vivo, human. On the procedure:
A randomized, double-blind, placebo controlled, parallel group, proof of principle study to evaluate the safety, tolerability, and efficacy of Compound A in the treatment of Constipation-Predominant Irritable Bowel Syndrome was conducted.
The objectives of the study include the following: to assess the efficacy of Compound A in the treatment of Constipation Predominant Irritable Bowel Syndrome (IBS-C); and to assess the safety, tolerability and pharmacokinetic profile of Compound A in subjects with IBS-C when administered as a enteric coated capsule for a period of 28 days.
Subjects with constipation predominant irritable bowel syndrome (IBS-C) defined by: the ROME III criteria as: recurrent abdominal pain or discomfort at least 3 days per month, during the previous 3 months that is associated with 2 or more of the following: (1) relieved by defecation; (2) onset associated with a change in stool frequency; and/or (3) onset associated with a change in stool appearance.
Treatment included 5 mg daily (as Enteric Coated capsule) for 14 days followed by 5 mg BID for another 14 days. One endpoint includes global IBS symptom relief (7-point scale). Another endpoint includes bowel movement frequency, pain, bloating, straining, stool consistency, and frequency of rescue medication (laxative). Statistically, a was set to 0.1.

Some results are limits rather than exact numbers.

Chain of α4β2 nueronal nicotinic receptors (P43681 29-627 limits assumed): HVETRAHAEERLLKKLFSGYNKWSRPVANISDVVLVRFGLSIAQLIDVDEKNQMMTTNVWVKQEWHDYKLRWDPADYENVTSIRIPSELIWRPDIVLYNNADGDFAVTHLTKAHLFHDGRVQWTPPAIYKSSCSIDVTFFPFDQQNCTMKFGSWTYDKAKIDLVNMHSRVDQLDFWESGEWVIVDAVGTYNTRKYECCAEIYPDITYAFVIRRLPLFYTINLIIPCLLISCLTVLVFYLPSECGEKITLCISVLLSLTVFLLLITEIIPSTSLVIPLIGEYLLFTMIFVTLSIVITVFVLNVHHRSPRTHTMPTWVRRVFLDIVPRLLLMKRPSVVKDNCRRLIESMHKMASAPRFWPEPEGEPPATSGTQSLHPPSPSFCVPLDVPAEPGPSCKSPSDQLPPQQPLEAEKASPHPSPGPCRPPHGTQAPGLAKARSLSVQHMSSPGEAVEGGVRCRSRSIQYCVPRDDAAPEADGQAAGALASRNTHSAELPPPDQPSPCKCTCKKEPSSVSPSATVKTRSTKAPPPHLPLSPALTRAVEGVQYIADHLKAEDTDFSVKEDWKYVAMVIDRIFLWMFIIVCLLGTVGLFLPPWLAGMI
Chain of α4β2 nueronal nicotinic receptors (P17787 26-502): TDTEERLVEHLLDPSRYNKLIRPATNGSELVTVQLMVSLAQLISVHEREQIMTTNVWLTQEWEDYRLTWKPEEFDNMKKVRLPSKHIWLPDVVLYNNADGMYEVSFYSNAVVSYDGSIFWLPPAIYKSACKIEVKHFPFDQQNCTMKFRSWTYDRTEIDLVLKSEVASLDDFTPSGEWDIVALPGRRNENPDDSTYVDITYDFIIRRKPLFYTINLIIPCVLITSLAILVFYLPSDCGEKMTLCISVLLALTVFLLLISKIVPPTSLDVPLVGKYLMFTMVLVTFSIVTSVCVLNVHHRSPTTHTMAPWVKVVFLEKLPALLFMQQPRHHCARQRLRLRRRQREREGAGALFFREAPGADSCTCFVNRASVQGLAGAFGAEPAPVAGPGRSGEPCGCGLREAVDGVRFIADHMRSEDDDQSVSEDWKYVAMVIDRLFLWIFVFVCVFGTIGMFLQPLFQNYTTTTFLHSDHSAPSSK
Chain of α3β4 nueronal nicotinic receptors (P32297 32-505): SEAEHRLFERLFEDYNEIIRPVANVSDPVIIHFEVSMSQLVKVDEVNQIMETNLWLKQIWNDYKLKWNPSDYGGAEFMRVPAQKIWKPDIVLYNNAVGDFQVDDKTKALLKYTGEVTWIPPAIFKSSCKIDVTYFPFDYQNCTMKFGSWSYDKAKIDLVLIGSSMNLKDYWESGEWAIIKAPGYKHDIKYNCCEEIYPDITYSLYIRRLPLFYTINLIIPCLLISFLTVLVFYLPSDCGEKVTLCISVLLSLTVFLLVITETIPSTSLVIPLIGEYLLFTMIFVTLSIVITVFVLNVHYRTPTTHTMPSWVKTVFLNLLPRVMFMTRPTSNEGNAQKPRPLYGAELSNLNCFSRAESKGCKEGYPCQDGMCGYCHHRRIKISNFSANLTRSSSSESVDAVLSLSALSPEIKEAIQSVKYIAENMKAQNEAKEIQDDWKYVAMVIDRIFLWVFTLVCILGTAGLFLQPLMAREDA
Chain of α3β4 nueronal nicotinic receptors (P30926 22-498): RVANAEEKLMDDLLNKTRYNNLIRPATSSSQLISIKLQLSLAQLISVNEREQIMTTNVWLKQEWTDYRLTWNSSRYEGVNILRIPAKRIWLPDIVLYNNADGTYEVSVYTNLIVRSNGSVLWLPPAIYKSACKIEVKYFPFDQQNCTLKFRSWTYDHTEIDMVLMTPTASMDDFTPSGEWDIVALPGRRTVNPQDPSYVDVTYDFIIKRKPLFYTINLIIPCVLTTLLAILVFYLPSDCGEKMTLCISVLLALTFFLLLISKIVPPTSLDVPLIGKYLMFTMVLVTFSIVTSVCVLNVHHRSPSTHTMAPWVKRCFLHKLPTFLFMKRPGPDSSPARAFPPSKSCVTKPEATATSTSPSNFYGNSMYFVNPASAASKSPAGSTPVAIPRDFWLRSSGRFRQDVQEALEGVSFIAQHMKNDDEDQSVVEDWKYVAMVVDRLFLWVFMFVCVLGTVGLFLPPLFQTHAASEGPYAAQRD

In general, half-life refers to how long it takes for the measured level to halve. With `C(=C\[C@H]1CCNC1)/c1cncnc1` [Compound A, (R)-5-((E)-2-pyrrolidin-3-ylvinyl)pyrimidine], the half-life in data set [1] was ≤ 1 h. Also, in data set [2] (MRD study, 10 mg 4 times daily), the “time of diarrhea after dosing” value is recorded as “more than 5 hours”; the “time of nausea and vomiting after dosing” value is ≤ 30 min. Also, the “systemic concentration when diarrhea observed” value in data set [2] (MRD study, more than 5 hours following dosing) is on record as “approximately 20 % of Cmax values”. In addition, in data set [2] (SRD and MRD studies, healthy subjects), the “most commonly observed adverse events” value is “nausea, vomiting and diarrhea”. Further, in data set [2] (healthy human subjects), the GI motility entry was “increase in GI motility”. The receptor activity type result in data set [3] is “agonist”. In addition, in data set [4], the blood glucose levels entry was “absence of any changes to blood glucose levels” and the “pain sensitivity (allodynia testing of the hindpaw)” value was “significant reversal of this pain”. For the same compound, the receptor activity type result in data set [5] is listed as “agonist”. Moreover, in data set [6] (chronically administered), the “analgesic effect (allodynia)” value is on record as “analgesic effect”. Moreover, the analgesic properties entry in data set [7] (IBS-C subjects) is given as “appears to lack analgesic properties”. In data set [7] (IBS-C subjects, 28 days), the “most commonly reported adverse events” value was “headache or gastrointestinal” and the “severity of adverse events” value is “mild to moderate”. Also, in data set [7] (enteric coated capsule, 5 mg daily 14 days then 5 mg BID 14 days), the tolerability result is “generally well tolerated”. In addition, the “spontaneous bowel movements (SBM)” value in data set [7] (versus placebo, maintained over at least 1 month) is “robust increases”. The “SBM relative to Tegaserod, Lubiprostone and Linaclotide” value in data set [7] (week 4, FIG. 2, comparator data from literature) is “compares favorably”.

Regarding `NCC1(CC(=O)O)CCCCC1` [Gabapentin, reference compound], in data set [6] (acutely administered), the “analgesic effect (allodynia)” value is given as “analgesic effect”.

Turning to “insulin: insulin-treated group in the STZ-rat model of diabetic neuropathy [reference compound]”, in data set [4], the blood glucose levels entry was “reduced blood glucose levels” and the “pain sensitivity (allodynia testing of the hindpaw)” value is on record as “did not have significant improvement in pain sensitivity”.
